Assay results from patent US20100029732A1, “Combinations of Beta-2-Adrenoceptor Agonistic Benzothiazolone” (ASTRAZENECA AB, priority 2007, published 2010).
Where a name gives a salt, the structure may show the parent alone.

Columns and labels:
[1] = tested on: LPS-induced intra-alveolar neutrophilia; assay: Intra-alveolar neutrophil migration after intratracheal LPS challenge in the CRL:CD rat; type: in vivo; settings: Compound W 3 ng/kg intratracheal 30 min prior to LPS 10 μg/kg; BAL 4 hr; mean±s.e.mean
Procedure: LPS challenge in CRL:CD rats causes an influx of neutrophils into the lungs. Under recoverable gaseous anaesthesia (5% isoflourane in oxygen), rats were dosed via the intatracheal route with vehicle (0.05M phosphate, 0.1% Tween 80, 0.6% saline, pH 6), or compound 30 min before challenge with an intratracheal dose of 10 μg/kg LPS.
The rats (250-400 g) were euthanized 4 hr after LPS challenge with 1 mL pentobarbitone sodium. A tracheotomy was performed and a calinula inserted. The airway was then lavaged using 3 mL Isoton at room temperature. The Isoton (BeckmanCoulter, High Wycombe, UK) was left in the airway for 10 seconds before being removed. The bronchio-alveolar lavage (BAL) fluid containing inflammatory cells was placed into a 15 mL centrifuge tube and kept on ice. This process was repeated three times. An aliquot of BAL fluid was removed and the inflammatory cells were counted on Sysmex (Sysmex UK, Milton Keynes). Neutrophils were expressed in millions/animal (mean±s.e.mean).

Adrenergic β2 = target: T1, Adrenergic β2 (Homo sapiens, UniProt P07550); assay: Adrenergic β2 mediated cAMP production in H292 cells (AlphaScreen); type: cell-based
T1 construct: Adherent H292 cells were removed from tissue culture flasks; endogenous in cells; host or cells: H292 cells
Procedure: Adrenergic β2 Mediated cAMP Production
H292 cells were grown in 225 cm2 flasks incubator at 37° C., 5% CO2 in RPMI medium containing, 10% (v/v) FBS (foetal bovine serum) and 2 mM L-glutamine.
Adherent H292 cells were removed from tissue culture flasks by treatment with Accutase™ cell detachment solution for 15 minutes. Flasks were incubated for 15 minutes in a humidified incubator at 37° C., 5% CO2. Detached cells were re-suspended in RPMI media (containing 10% (v/v) FBS and […] L-glutamine) at 0.05×10^6 cells per 1 mL. 5000 cells in 100 μL were added to each well of a tissue-culture-treated 96-well plate and the cells incubated overnight in a humidified incubator at 37° C., 5% CO2. The culture media was removed and cells were washed twice with 100 μL assay buffer and replaced with 50 μL assay buffer (HBSS solution containing 10 mM HEPES pH7.4 and 5 mM glucose). […]
The concentration of cAMP (cyclic adenosine monophosphate) in the cell lysate was determined using AlphaScreen™ methodology. […] The AlphaScreen™ signal was measured using an EnVision spectrophotometer (Perkin-Elmer Inc.) with the recommended manufacturer's settings. cAMP concentrations were determined by reference to a calibration curve determined in the same experiment using standard cAMP concentrations. […] Intrinsic Activity was expressed as a fraction relative to the maximum activity determined for formoterol in each experiment. […]

[2] = tested on: guinea pig trachea contracted with methacholine; assay: Bronchodilator activity in guinea pig isolated tracheal ring preparation: onset measurements; settings: rings contracted with methacholine 1 μM, mean±s.e.mean, n=4
Procedure: Guinea pigs (300-500 g) were killed by cervical dislocation and the trachea was isolated. The trachea was cut into segments 2-3 cartilage rings in width and suspended in 10 ml organ baths in modified Krebs' solution (mM; NaCl, 90; NaHCO3, 45; KCl, 5; MgSO4.7H2O, 0.5; Na2HPO4.2H2O, 1; CaCl2, 2.25; glucose, 10; pH 7.4) gassed with 5% CO2, 95% O2 at 37° C.). The tracheal rings were attached to an isometric force transducer for the measurement of isometric tension. The tissues were washed and a force of 1 g was applied to each tissue. The rings were contracted with methacholine (1 μM). Once the contraction had reached a plateau, vehicle (0.01% DMSO in distilled H2O), compound A (3 nM), roflumilast (1 μM) or a combination of compound A (3 nM) and roflumilast (1 μM) was added and the tissue left until the response had reached a plateau. Data were collected using the Chart 4 software (ADInstruments, Charlgrove, UK). The time to 90% of the maximum effect of the bronchodilator (onset time) was measured and expressed in min (mean±s.e.mean).

[3] = tested on: methacholine-induced bronchoconstriction; assay: Lung function in anaesthetised guinea-pigs, methacholine challenge; type: in vivo, Dunkin-Hartley guinea pig; settings: tiotropium bromide 0.03 μg/kg intratracheal 2 hours prior; after 5 μg/kg i.v. methacholine
Procedure: Male Dunkin-Hartley guinea pigs (300-600 g) were weighed and dosed with vehicle (0.05M phosphate, 0.1% Tween 80, 0.6% saline, pH 6) or compound via the intratracheal route under recoverable gaseous anaesthesia (5% halothane in oxygen). Animals were dosed with compound or vehicle two hours prior to the administration of histamine or methacholine.
Guinea pigs were anaesthetised with pentobarbitone (1 mL/kg of 60 mg/mL solution i.p.) approximately 30 minutes prior to the first bronchoconstrictor administration. The trachea was cannulated and the animal ventilated using a constant volume respiratory pump (Harvard Rodent Ventilator model 683) at a rate of 60 breath/min and a tidal volume of 5 ml/lkg. […]
The animals were transferred to a Flexivent System (SCIREQ, Montreal, Canada) in order to measure airway resistance. […] Respiratory resistance was measured using the Flexivent “snapshot” facility (1 second duration, 1 Hz frequency). […] After each administration of bronchoconstrictor the peak resistance value was recorded. […] Percentage bronchoprotection produced by a compound was calculated at each dose of brochoconstrictor as follows:
Where % change Rveh is the mean of the maximum percentage change in airway resistance in the vehicle treated group. The results reported were measured after 5 μg/kg histamine or methacholine and were expressed as percentage bronchoprotection (mean±s.e.mean).

T1 sequence (P07550 whole entry): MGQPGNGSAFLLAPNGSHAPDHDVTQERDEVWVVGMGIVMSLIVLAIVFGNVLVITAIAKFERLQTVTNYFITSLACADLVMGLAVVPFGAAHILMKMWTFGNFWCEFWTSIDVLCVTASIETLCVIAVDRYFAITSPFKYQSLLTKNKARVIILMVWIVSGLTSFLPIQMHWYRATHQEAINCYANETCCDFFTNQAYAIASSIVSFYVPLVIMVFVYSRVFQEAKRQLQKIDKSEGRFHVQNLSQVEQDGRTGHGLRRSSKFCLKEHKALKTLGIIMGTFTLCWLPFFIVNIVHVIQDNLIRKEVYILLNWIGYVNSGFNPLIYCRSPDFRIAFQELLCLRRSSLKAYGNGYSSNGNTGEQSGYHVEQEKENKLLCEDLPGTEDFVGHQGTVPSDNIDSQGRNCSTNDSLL

CNC(=O)c1cc(Cl)c(OC(C)(C)C(=O)O)cc1OC[C@@H](O)CN1CCC2(CC1)Cc1cc(Cl)ccc1O2 [Compound W, 2-{2-Chloro-5-{[(2S)-3-(5-chloro-1′H,3H-spiro[1-benzofuran-2,4′-piperidin]-1′-yl)-2-hydroxypropyl]oxy}-4-[(methylamino)carbonyl]phenoxy}-2-methylpropanoic acid]
BAL neutrophils [1]: 6.3±1.1 million/animal

CCN(CC)CCN(CCNCCc1ccc(O)c2[nH]c(=O)sc12)C(=O)CCOCCc1cccc2ccccc12 [Compound A, N-[2-(Diethylamino)ethyl]-N-(2-{[2-(4-hydroxy-2-oxo-2,3-dihydro-1,3-benzothiazol-7-yl)ethyl]amino}ethyl)-3-[2-(1-naphthyl)ethoxy]propanamide dihydrobromide]
β2 Int Act (Adrenergic β2; Intrinsic Activity as fraction relative to the maximum activity of formoterol): 0.8 | onset time (time to 90% of the maximum effect of the bronchodilator) ([2]; compound A 3 nM): 16 ± 3.0 min

C[N+]1(C)[C@@H]2C[C@@H](OC(=O)C(O)(c3cccs3)c3cccs3)C[C@H]1[C@@H]1O[C@@H]12 [tiotropium bromide, Tiotropium bromide]
inhibition of methacholine-induced bronchoconstriction [3]: 13%

CCN(CC)CCN(CCNCCc1ccc(O)c2[nH]c(=O)sc12)C(=O)CCOCCc1cccc2ccccc12 [N-[2-(Diethylamino)ethyl]-N-(2-{[2-(4-hydroxy-2-oxo-2,3-dihydro-1,3-benzothiazol-7-yl)ethyl]amino}ethyl)-3-[2-(1-naphthyl)ethoxy]propanamide]
selectivity of β2 adrenoceptor agonism (Adrenergic β2; over adrenergic α1D, adrenergic β1 and dopamine D2 activities): ≥ 10 fold

O=C(Nc1c(Cl)cncc1Cl)c1ccc(OC(F)F)c(OCC2CC2)c1 [roflumilast, 3-(cyclopropylmethoxy)-N-(3,5-dichloro-4-pyridinyl)-4-(difluoromethoxy)benzamide, reference compound]
onset time (time to 90% of the maximum effect of the bronchodilator) ([2]; roflumilast 1 μM): 26 ± 1.4 min
